molecular target: ATP-dependent translocase ABCB1 (Homo sapiens, UniProt P08183); assay: TP_TRANSPORTER: cell accumulation of calcein in L-MDR1 cells; format: functional, cell-based; conditions: not given
Sequence (P08183 whole entry): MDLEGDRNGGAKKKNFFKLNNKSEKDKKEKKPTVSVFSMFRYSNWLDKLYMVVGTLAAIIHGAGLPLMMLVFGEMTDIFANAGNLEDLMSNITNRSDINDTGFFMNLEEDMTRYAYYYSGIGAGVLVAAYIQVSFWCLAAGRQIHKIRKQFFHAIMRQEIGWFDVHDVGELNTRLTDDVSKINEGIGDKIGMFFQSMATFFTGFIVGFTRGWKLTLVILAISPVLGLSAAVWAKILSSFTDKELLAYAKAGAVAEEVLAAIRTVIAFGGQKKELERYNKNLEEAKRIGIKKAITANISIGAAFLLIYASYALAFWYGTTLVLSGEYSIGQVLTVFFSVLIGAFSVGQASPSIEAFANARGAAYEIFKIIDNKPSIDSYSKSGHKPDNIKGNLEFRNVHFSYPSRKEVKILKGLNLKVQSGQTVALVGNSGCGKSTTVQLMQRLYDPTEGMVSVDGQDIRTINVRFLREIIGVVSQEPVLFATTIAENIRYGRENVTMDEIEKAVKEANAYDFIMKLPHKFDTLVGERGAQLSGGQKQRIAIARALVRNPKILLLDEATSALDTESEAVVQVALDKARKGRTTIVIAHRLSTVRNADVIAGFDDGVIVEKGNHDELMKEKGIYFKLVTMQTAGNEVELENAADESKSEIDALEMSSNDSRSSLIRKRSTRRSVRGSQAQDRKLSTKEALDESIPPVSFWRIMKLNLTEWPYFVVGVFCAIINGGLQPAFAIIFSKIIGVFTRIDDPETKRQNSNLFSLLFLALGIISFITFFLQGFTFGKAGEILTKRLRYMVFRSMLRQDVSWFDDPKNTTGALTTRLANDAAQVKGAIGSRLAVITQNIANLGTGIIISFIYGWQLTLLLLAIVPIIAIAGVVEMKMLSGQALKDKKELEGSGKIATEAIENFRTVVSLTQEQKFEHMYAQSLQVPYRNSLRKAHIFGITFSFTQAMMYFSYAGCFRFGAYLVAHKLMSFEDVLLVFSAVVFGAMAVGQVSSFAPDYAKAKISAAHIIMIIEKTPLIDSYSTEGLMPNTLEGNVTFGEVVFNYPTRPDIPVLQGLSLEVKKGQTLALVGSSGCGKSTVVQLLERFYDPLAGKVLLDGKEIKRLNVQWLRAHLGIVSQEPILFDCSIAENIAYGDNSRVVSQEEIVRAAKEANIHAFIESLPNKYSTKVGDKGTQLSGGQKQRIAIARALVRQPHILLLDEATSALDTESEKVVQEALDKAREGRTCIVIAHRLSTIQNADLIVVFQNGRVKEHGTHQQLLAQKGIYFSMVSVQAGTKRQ

Row | SMILES | IC50 [µM]
1 | Fc1ccc([C@@H]2CCNC[C@H]2COc2ccc3c(c2)OCO3)cc1 [PAROXETINE] | 29.8
2 | CN[C@H]1CC[C@@H](c2ccc(Cl)c(Cl)c2)c2ccccc21 [SERTRALINE] | 31.8

same assay, conditions: pig, l-mdr1

Row | SMILES | Activity
3 | CN(C)CC(c1ccc(O)cc1)C1(O)CCCCC1 (configuration not stated) [DESVENLAFAXINE] | is not an inhibitor [-]
4 | C/C=C/C[C@@H](C)C(=O)[C@H]1C(=O)N[C@@H](C(C)C)C(=O)N(C)CC(=O)N(C)[C@@H](CC(C)C)C(=O)N[C@@H](C(C)C)C(=O)N(C)[C@@H](CC(C)C)C(=O)N[C@@H](C)C(=O)N[C@H](C)C(=O)N(C)[C@@H](CC(C)C)C(=O)N(C)[C@@H](CC(C)C)C(=O)N(C)[C@@H](C(C)C)C(=O)N1C | inhibitor [+]
5 | N[C@H]1CC[C@@H](c2ccc(Cl)c(Cl)c2)c2ccccc21 | inhibitor [+]
6 | COCCCC/C(=N\OCCN)c1ccc(C(F)(F)F)cc1 [FLUVOXAMINE] | inhibitor [+]
7 | COc1cc(OC[C@@H]2CNCC[C@H]2c2ccc(F)cc2)ccc1O [Paroxetine-M] | inhibitor [+]
8 | CNCC(c1ccc(OC)cc1)C1(O)CCCCC1 (configuration not stated) [N-DESMETHYLVENLAFAXINE] | inhibitor [+]
9 | NCCC(Oc1ccc(C(F)(F)F)cc1)c1ccccc1 (configuration not stated) [NORFLUOXETINE] | inhibitor [+]
10 | CNCCCC1(c2ccc(F)cc2)OCc2cc(C#N)ccc21 (configuration not stated) [DESMETHYLCITALOPRAM] | inhibitor [+]
11 | CN(C)CCCC1(c2ccc(F)cc2)OCc2cc(C#N)ccc21 (configuration not stated) [CITALOPRAM] | inhibitor [+]
12 | COc1ccc(C(CN(C)C)C2(O)CCCCC2)cc1 (configuration not stated) [VENLAFAXINE] | inhibitor [+]
